Patent US11492405B2, “Reducing systemic regulatory t cell levels or activity for treatment of disease and injury of the CNS” (Yeda Research and Development Co. Ltd, priority 2014, dated 2022)

Columns and labels:
5XFAD AD-Tg mice [1] = assay: Morris water maze (MWM) in 5XFAD AD-Tg mice; assay type: in vivo, mouse; details: weekly-GA vs vehicle (PBS), AD-Tg mice at 6 m
Protocol: Mice were given three trials per day, for 4 consecutive days, to learn to find a hidden platform located 1.5 cm below the water surface in a pool (1.1 m in diameter). The water temperature was kept between 21-22° C. Water was made opaque with milk powder. Within the testing room, only distal visual shape and object cues were available to the mice to aid in location of the submerged platform. The escape latency, i.e., the time required to find and climb onto the platform, was recorded for up to 60 s. Each mouse was allowed to remain on the platform for 15 s and was then removed from the maze to its home cage. […] The inter-trial interval for each mouse was 10 min. On day 5, the platform was removed, and mice were given a single trial lasting 60 s without available escape. On days 6 and 7, the platform was placed in the quadrant opposite the original training quadrant, and the mouse was retrained for three sessions each day. Data were recorded using the EthoVision V7.1 automated tracking system (Noldus Information Technology). Statistical analysis was performed using analysis of variance (ANOVA) and the Bonferroni post-hoc test. All MWM testing was performed between 10 a.m. and 5 p.m. during the lights-off phase.

5XFAD AD-Tg mice [2] = assay: Radial arm water maze (RAWM) in 5XFAD AD-Tg mice; assay type: in vivo, mouse; details: weekly-GA over 4 weeks
Protocol: The radial-arm water maze (RAWM) was used to test spatial learning and memory, as was previously described in detail (Alamed et al, 2006). Briefly, six stainless steel inserts were placed in the tank, forming six swim arms radiating from an open central area. The escape platform was located at the end of one arm (the goal arm), 1.5 cm below the water surface, in a pool 1.1 m in diameter. The water temperature was kept between 21-22° C. Water was made opaque with milk powder. Within the testing room, only distal visual shape and object cues were available to the mice to aid in location of the submerged platform. The goal arm location remained constant for a given mouse. On day 1, mice were trained for 15 trials (spaced over 3 h), with trials alternating between a visible and hidden platform, and the last 4 trails with hidden platform only. On day 2, mice were trained for 15 trials with the hidden platform. Entry into an incorrect arm, or failure to select an arm within 15 sec, was scored as an error. Spatial learning and memory were measured by counting the number of arm entry errors or the escape latency of the mice on each trial. Training data were analyzed as the mean errors or escape latency, for training blocks of three consecutive trials.

Substance: Glatiramer acetate [GA]
- spatial learning/memory performance in acquisition, probe and reversal phases of the MWM (5XFAD AD-Tg mice [1]): better spatial learning/memory performance
- time the improved cognitive performance lasted after the treatment (5XFAD AD-Tg mice [2]; 5XFAD AD-Tg mice): up to 2 months
- cognitive performance (MWM, RAWM) (5XFAD AD-Tg mice [2]; MWM 1 week, RAWM 1 and 2 months after last injection): improved cognitive performance
